Laboratory results as given in US8592469B2, “Diazonamide analogs” (Joyant Pharmaceuticals, Inc., priority 2012, dated 2013).

Assays:
[1] = system: A2058 cells; assay: Cell viability assay (Cell-Titer-Glo) in A2058 cells; type: cell-based; conditions: Homo sapiens, 48 hour treatment, test compounds 1 nM to 1 μM
Protocol: (§1) Cell viability assays were run using standard protocols known to those of skill in art. Cells were plated in 96 well plates at the density of 3,000-10,000 cells per well. Twenty four hours later, cells were treated with increasing concentration of test compounds (1 nM to 1 μM). After another 48 hour, cell survival was measured using Cell-Titer-Glo® reagent (Promega) following the protocol provided by the manufacture. The IC50 value was determined as the concentration of test compound that kills 50% of the cell population.
(§2) Cell viability data generated according to the protocol described above was generated for representative compounds in A2058 and U937 cells. The compounds shown in Table 1 were prepared by the methods described herein for structurally similar compounds. The reference compound was a synthetic diazonamide analog having the structure: […]

[2] = system: U937 cells; assay: Cell viability assay (Cell-Titer-Glo) in U937 cells; type: cell-based; conditions: test compounds 1 nM to 1 μM
Protocol: as §1, §2

[3] = Homo sapiens, U-937, 48 hour treatment

Compound | IC50 [1] | IC50 [2, 3] | IC50 ([2]; 48 hour treatment)
CC(C)[C@H](O)C(=O)N[C@H]1Cc2ccc(O)c(c2)[C@]2(CNc3ccccc32)C2=C(c3nc(CO)co3)N=C(O2)[C@H](C(C)C)NC1=O (single isomer, unassigned) [Compound 102] | 492 nM | 225 nM | –
CC(C)[C@H](O)C(=O)NC1Cc2ccc3c(c2)C2(C4=C(c5nc(COC(=O)C(C)(C)C)co5)N=C(O4)[C@H](C(C)C)NC1=O)c1ccccc1N[C@H]2O3 (stereo partly shown) [Compound 21] | 40 nM | 20 nM | –
CC(=O)OCc1coc(-c2nc3oc2C24c5ccccc5N[C@H]2Oc2ccc(cc24)C[C@H](NC(=O)[C@@H](O)C(C)C)C(=O)N[C@H]3C(C)C)n1 (stereo partly shown) [Compound 22] | 52 nM | 19 nM | –
CC(C)[C@H](O)C(=O)NC1Cc2ccc3c(c2)C2(C4=C(c5nc(COC=O)co5)N=C(O4)[C@H](C(C)C)NC1=O)c1ccccc1N[C@H]2O3 (stereo partly shown) [Compound 23] | 57 nM | 21 nM | –
COC(=O)OCc1coc(-c2nc3oc2C24c5ccccc5N[C@H]2Oc2ccc(cc24)CC(NC(=O)[C@@H](O)C(C)C)C(=O)N[C@H]3C(C)C)n1 (stereo partly shown) [Compound 24] | 26 nM | 19.7 nM | –
CC(C)[C@H](O)C(=O)N[C@H]1Cc2ccc3c(c2)C2(C4=C(c5nc(COP(=O)(O)O)co5)N=C(O4)[C@H](C(C)C)NC1=O)c1ccccc1N[C@H]2O3 (stereo partly shown) [Compound 25] | 70.8 nM | 36.9 nM | –
COC(=O)OCc1coc(-c2nc3oc2C24c5ccccc5N[C@H]2Oc2ccc(cc24)CC(NC(=O)[C@@H](O)C(C)C)C(=O)N[C@H]3C(C)(C)C)n1 (stereo partly shown) [Compound 26] | 3.33 nM | 2.88 nM | –
CC(C)[C@@H]1NC(=O)C(NC(=O)[C@@H](O)C(C)(C)C)Cc2ccc3c(c2)C2(C4=C(c5nc(CO)co5)N=C1O4)c1ccccc1N[C@H]2O3 (stereo partly shown) [Compound 27] | 112 nM | 98 nM | –
CC(C)C[C@H](O)C(=O)N[C@H]1Cc2ccc3c(c2)C2(C4=C(c5nc(CO)co5)N=C(O4)[C@H](C(C)C)NC1=O)c1ccccc1N[C@H]2O3 (stereo partly shown) [Compound 28] | 143 nM | 112 nM | –
CC(O)c1coc(-c2nc3oc2C24c5ccccc5N[C@H]2Oc2ccc(cc24)C[C@H](NC(=O)[C@@H](O)C(C)C)C(=O)N[C@H]3C(C)C)n1 (stereo partly shown) [Compound 29] | 119 nM | 59 nM | –
CC(=O)c1coc(-c2nc3oc2C24c5ccccc5N[C@H]2Oc2ccc(cc24)C[C@H](NC(=O)[C@@H](O)C(C)C)C(=O)N[C@H]3C(C)C)n1 (stereo partly shown) [Compound 30] | 60 nM | 13 nM | –
CC(C)[C@H](O)C(=O)N[C@H]1Cc2ccc3c(c2)C2(C4=C(c5nc(C(C)(C)O)co5)N=C(O4)[C@H](C(C)C)NC1=O)c1ccccc1N[C@H]2O3 (stereo partly shown) [Compound 31] | 602 nM | 259 nM | –
CNCc1coc(-c2nc3oc2C24c5ccccc5N[C@H]2Oc2ccc(cc24)C[C@H](NC(=O)[C@@H](O)C(C)C)C(=O)N[C@H]3C(C)C)n1 (stereo partly shown) [Compound 32] | > 1000 nM | > 1000 nM | –
CC(C)[C@H](O)C(=O)N[C@H]1Cc2ccc3c(c2)C2(C4=C(c5nc(CN)co5)N=C(O4)[C@H](C(C)C)NC1=O)c1ccccc1N[C@H]2O3 (stereo partly shown) [Compound 33] | > 1000 nM | > 1000 nM | –
COC(=O)NCc1coc(-c2nc3oc2C24c5ccccc5N[C@H]2Oc2ccc(cc24)C[C@H](NC(=O)[C@@H](O)C(C)C)C(=O)N[C@H]3C(C)C)n1 (stereo partly shown) [Compound 34] | 149 nM | 134 nM | –
CC(C)[C@H](O)C(=O)NC1Cc2ccc3c(c2)C2(C4=C(c5nc(CNS(C)(=O)=O)co5)N=C(O4)[C@H](C(C)C)NC1=O)c1ccccc1N[C@H]2O3 (stereo partly shown) [Compound 35] | 151 nM | 198 nM | –
CC(C)[C@H](O)C(=O)N[C@H]1Cc2ccc3c(c2)C2(C4=C(c5nc(CNS(=O)(=O)c6ccccc6)co5)N=C(O4)[C@H](C(C)C)NC1=O)c1ccccc1N[C@H]2O3 (stereo partly shown) [Compound 36] | 194 nM | 209 nM | –
COC(=O)Nc1coc(-c2nc3oc2C24c5ccccc5N[C@H]2Oc2ccc(cc24)CC(NC(=O)[C@@H](O)C(C)C)C(=O)N[C@H]3C(C)C)n1 (stereo partly shown) [Compound 37] | 235 nM | 178 nM | –
CC(=O)Nc1oc(-c2nc3oc2C24c5ccccc5N[C@H]2Oc2ccc(cc24)CC(NC(=O)[C@@H](O)C(C)C)C(=O)N[C@H]3C(C)C)nc1C#N (stereo partly shown) [Compound 38] | > 1000 nM | > 1000 nM | –
CC(C)[C@H](O)C(=O)N[C@H]1Cc2ccc3c(c2)C2(C4=C(c5nc(C#N)co5)N=C(O4)[C@H](C(C)C)NC1=O)c1ccccc1N[C@H]2O3 (stereo partly shown) [Compound 39] | 23 nM | 71 nM | –
Cc1oc(-c2nc3oc2[C@@]24c5ccccc5NC2Oc2ccc(cc24)CC(NC(=O)[C@@H](O)C(C)C)C(=O)N[C@H]3C(C)C)nc1C#N (stereo partly shown) [Compound 40] | 182 nM | 210 nM | –
CC(C)[C@H](O)C(=O)NC1Cc2ccc3c(c2)C2(C4=C(c5nc(C6OCCCO6)co5)N=C(O4)[C@H](C(C)C)NC1=O)c1ccccc1N[C@H]2O3 (stereo partly shown) [Compound 41] | 65 nM | 65 nM | –

Compound | IC50 [1] | IC50 [2, 3] | IC50 ([2]; 48 hour treatment)
CC(C)[C@H](O)C(=O)NC1Cc2ccc3c(c2)C2(C4=C(c5nc(C6OCCO6)co5)N=C(O4)[C@H](C(C)C)NC1=O)c1ccccc1N[C@H]2O3 (stereo partly shown) [Compound 42] | 49 nM | 43 nM | –
CC(C)[C@H](O)C(=O)N[C@H]1Cc2ccc3c(c2)C2(C4=C(c5nc(C6=NCCO6)co5)N=C(O4)[C@H](C(C)C)NC1=O)c1ccccc1N[C@H]2O3 (stereo partly shown) [Compound 43] | 22 nM | 19 nM | –
CC(C)[C@H](O)C(=O)NC1Cc2ccc3c(c2)[C@]2(C4=C(c5nc(-c6nnn[nH]6)co5)N=C(O4)[C@H](C(C)C)NC1=O)c1ccccc1NC2O3 (stereo partly shown) [Compound 44] | > 1000 nM | > 1000 nM | –
CC(C)[C@H](O)C(=O)NC1Cc2ccc3c(c2)[C@]2(C4=C(c5nc(-c6ncc[nH]6)co5)N=C(O4)[C@H](C(C)C)NC1=O)c1ccccc1NC2O3 (stereo partly shown) [Compound 45] | 589 nM | 318 nM | –
Cc1nc(-c2coc(-c3nc4oc3[C@@]35c6ccccc6NC3Oc3ccc(cc35)C[C@H](NC(=O)[C@@H](O)C(C)C)C(=O)N[C@H]4C(C)C)n2)no1 (stereo partly shown) [Compound 46] | 49 nM | 76.9 nM | –
Cc1noc(-c2coc(-c3nc4oc3[C@@]35c6ccccc6NC3Oc3ccc(cc35)C[C@H](NC(=O)[C@@H](O)C(C)C)C(=O)N[C@H]4C(C)(C)C)n2)n1 (stereo partly shown) [Compound 47] | 7.06 nM | 14.2 nM | –
Cc1nnc(-c2coc(-c3nc4oc3[C@@]35c6ccccc6NC3Oc3ccc(cc35)C[C@H](NC(=O)[C@@H](O)C(C)C)C(=O)N[C@H]4C(C)(C)C)n2)o1 (stereo partly shown) [Compound 48] | 6.11 nM | 6.34 nM | –
COC(=O)c1coc(-c2nc3oc2C24c5ccccc5NC2Oc2ccc(cc24)C[C@H](NC(=O)[C@@H](O)C(C)C)C(=O)N[C@H]3CC(C)C)n1 (stereo partly shown) [Compound 49] | > 1000 nM | 223 nM | –
COC(=O)c1coc(-c2nc3oc2C24c5ccccc5NC2Oc2ccc(cc24)C[C@H](NC(=O)[C@@H](O)C(C)C)C(=O)N[C@H]3C(C)(C)C)n1 (stereo partly shown) [Compound 50] | 53 nM | 12 nM | –
COC(=O)c1coc(-c2nc3oc2C24c5ccccc5NC2Oc2ccc(cc24)C[C@H](NC(=O)[C@@H](O)C(C)C)C(=O)N[C@H]3Cc2ccccc2)n1 (stereo partly shown) [Compound 51] | > 1000 nM | > 1000 nM | –
CCC[C@@H]1NC(=O)[C@@H](NC(=O)[C@@H](O)C(C)C)Cc2ccc3c(c2)C2(C4=C(c5nc(C(=O)OC)co5)N=C1O4)c1ccccc1NC2O3 (stereo partly shown) [Compound 52] | 257 nM | 71 nM | –
COC(=O)c1coc(-c2nc3oc2[C@@]24c5ccccc5NC2Oc2ccc(cc24)C[C@H](NC(=O)[C@@H](O)C(C)C)C(=O)NC3)n1 (stereo partly shown) [Compound 53] | > 1000 nM | > 1000 nM | –
COC(=O)c1coc(-c2nc3oc2[C@@]24c5ccccc5NC2Oc2ccc(cc24)C[C@H](NC(=O)[C@@H](O)C(C)C)C2=NC3CO2)n1 (stereo partly shown) [Compound 54] | > 1000 nM | > 1000 nM | –
CC(C)[C@H](O)C(=O)N[C@H]1Cc2ccc3c(c2)[C@]2(C4=C(c5nc(CO)co5)N=C(O4)[C@H](C)NC1=O)c1ccccc1NC2O3 (stereo partly shown) [Compound 55] | > 1000 nM | > 1000 nM | –
COC(=O)c1coc(-c2nc3oc2[C@@]24c5ccccc5NC2Oc2ccc(cc24)C[C@H](NC(=O)[C@@H](O)C(C)C)C(=O)N[C@H]3C)n1 (stereo partly shown) [Compound 56] | 968 nM | 588 nM | –
CC(C)[C@H](O)C(=O)N[C@H]1Cc2ccc3c(c2)[C@]2(C4=C(c5nc(CO)co5)N=C(O4)[C@H](C(C)(C)C)NC1=O)c1ccccc1N[C@@H]2O3 [Compound 57] | 8.3 nM | 5.3 nM | –
COC(=O)c1coc(-c2nc3oc2[C@@]24c5ccccc5NC2Oc2ccc(cc24)C[C@H](NC(=O)[C@@H](O)C(C)C)C(=O)N[C@H]3C2CCCCC2)n1 (stereo partly shown) [Compound 58] | > 1000 nM | 445 nM | –
COC(=O)c1coc(-c2nc3oc2[C@]24c5ccccc5NC2Oc2ccc(cc24)C[C@H](NC(=O)[C@@H](O)C(C)C)C(=O)N[C@H]3C(C)(C)C)n1 (stereo partly shown) [Compound 59] | – | – | 69 nM
CC(C)[C@H](O)C(=O)N[C@H]1Cc2ccc3c(c2)[C@]2(C4=C(c5nc(CO)co5)N=C(O4)[C@H](C4CCCCC4)NC1=O)c1ccccc1NC2O3 (stereo partly shown) [Compound 60] | > 1000 nM | 795 nM | –
COC(=O)c1coc(-c2coc([C@@H]3CCCN3C(=O)[C@H](Cc3ccc4c(c3)[C@@H]3c5ccccc5NC3O4)NC(=O)[C@@H](O)C(C)C)n2)n1 (stereo partly shown) [Compound 61] | > 1000 nM | 761 nM | –
CC(C)[C@H](O)C(=O)N[C@H]1Cc2ccc3c(c2)C2(C4=C(c5nc(C#N)co5)N=C(O4)[C@H](C(C)(C)C)NC1=O)c1ccccc1N[C@H]2O3 (stereo partly shown) [Compound 62] | 2.54 nM | 15.6 nM | –
